≈ marks a conversion by molar mass, not a printed value. Read-outs that look alike come from different tables or passages of the source. Residues, ends and D or L forms follow the SMILES beside them.
Experiments:
Type in all cases: cell-based
[1] = tested on: Enterococcus faecalis ATCC29212
Method: (§1) Minimal inhibitory concentration (MIC) determination. The MIC of the peptides were measured using a modified broth microdilution method in Mueller Hinton (MH) medium (Wu M, Hancock R E W. 1999. Interaction of the cyclic antimicrobial cationic peptide bactenecin with the outer and cytoplasmic membrane. J Biol Chem 274, 29-35). Briefly, the peptides were dissolved and stored in glass vials. The assay was performed in sterile 96-well polypropylene microtitre plates were used. Serial dilutions of the peptides to be assayed were performed in 0.01% acetic acid (Fisher) containing 0.2% bovine serum albumin (Boehringer Mannheim GmbH) at 10× the desired final concentration. Ten microlitres of the 10× peptides were added to each well of a 96-well polypropylene plate containing 90 μl of MH media per well. Bacteria were added to the plate from an overnight culture at 2-7×10^5 colony forming units/ml and incubated over night at 37° C. The MIC was taken as the concentration at which no growth was observed.
(§2) Strains. For the killing assay a mini-Tn5-lux mutant in Pseudomonas aeruginosa H103 was used. The strain is called H1001 and contains a fliC::luxCDABE transcriptional fusion resulting in constitutive expression of luciferase. The bacterial strains used for the antimicrobial activity assays included Escherichia coli UB1005 (F-, nalA37, metB1), a wild-type Salmonella enterica ssp. typhimurium (S. typhimurium), wild-type Pseudomonas aeruginosa PAO1 strain H103, Enterococcus faecalis ATCC29212, Staphylococcus aureus ATCC25923, and a clinical isolate of Staphylococcus epidermidis obtained from Dr. D. Speert (Department of Medicine, University of British Columbia). Antifungal activity was tested using a lab isolate of Candida albicans obtained from Dr. B. Dill (Department of Microbiology and Immunology, University of British Columbia).

[2] = tested on: lab isolate of Candida albicans
Method: as §1, §2

[3] = tested on: wild-type Salmonella enterica ssp. typhimurium
Method: as §1, §2

Escherichia coli UB1005 = tested on: Escherichia coli UB1005
Method: as §1, §2

[4] = tested on: Staphylococcus aureus ATCC25923
Method: as §1, §2

[5] = tested on: clinical isolate of Staphylococcus epidermidis
Method: as §1, §2

[6] = tested on: Pseudomonas aeruginosa PAO1 strain H103
Method: The biological activity of the peptides can be determined by standard methods known to those of skill in the art, such as “minimal inhibitory concentration (MIC)” assay described in the present examples, whereby the lowest concentration at which no change in OD is observed for a given period of time is recorded as MIC.
as §1, §2

[7] = indolicidin substitution variants (Table 4)

Compound | MIC E. faecalis ([1]; ATCC29212) | MIC C. albicans ([2]; lab isolate of) | MIC S. typhi [3] | MIC E. coli (Escherichia coli UB1005; UB1005) | MIC S. aureus ([4]; ATCC25923) | MIC S. epi. ([5]; clinical isolate of) | MIC P. aerug ([6]; PAO1) | MIC E. coli (Escherichia coli UB1005; [7]) | MIC E. faecalis [1, 7] | MIC C. albicans [2, 7] | MIC S. aureus [4, 7] | MIC S. epi. [5, 7] | MIC P. aerug [6, 7]
CC[C@H](C)[C@H](NC(=O)[C@H](CCCNC(=N)N)NC(=O)[C@H](Cc1c[nH]c2ccccc12)NC(=O)[C@H](CCCNC(=N)N)NC(=O)[C@@H](N)C(C)C)C(=O)N[C@@H](CCCNC(=N)N)C(=O)N[C@H](C(=O)N[C@@H](C)C(=O)N[C@H](C(=O)N[C@H](C(=O)N[C@@H](CCCNC(=N)N)C(=O)N[C@@H](C)C(N)=O)[C@@H](C)CC)C(C)C)C(C)C [HH4, VRWRIRVAVIRA] (H-VRWRIRVAVIRA-NH2) | 12 µg/mL (≈ 8.03 µM) | 12 µg/mL (≈ 8.03 µM) | 6 µg/mL (≈ 4.02 µM) | 1.6 µg/mL (≈ 1.07 µM) | 12 µg/mL (≈ 8.03 µM) | 1.6 µg/mL (≈ 1.07 µM) | 6 µg/mL (≈ 4.02 µM) |  |  |  |  |  | 
CC(C)C[C@H](NC(=O)[C@@H](N)Cc1ccccc1)C(=O)N1CCC[C@H]1C(=O)N[C@@H](CCCCN)C(=O)N[C@@H](CCCCN)C(=O)N[C@@H](Cc1ccccc1)C(=O)N[C@@H](CCCNC(=N)N)C(=O)N[C@@H](Cc1c[nH]c2ccccc12)C(=O)N[C@@H](Cc1c[nH]c2ccccc12)C(=O)N[C@@H](CCCCN)C(=O)N[C@@H](Cc1ccc(O)cc1)C(=O)N[C@@H](CCCNC(=N)N)C(=O)N[C@@H](CCCCN)C(N)=O [HH972, FLPKKFRWWKYRK] (H-FLPKKFRWWKYRK-NH2; N-terminus assumed) | >125 µg/mL | 31 µg/mL (≈ 16.5 µM) | 31 µg/mL (≈ 16.5 µM) |  | 31 µg/mL (≈ 16.5 µM) | 8 µg/mL (≈ 4.25 µM) | 31 µg/mL (≈ 16.5 µM) | 16 µg/mL (≈ 8.5 µM) |  |  |  |  | 
CC[C@H](C)[C@H](NC(=O)[C@H](CCCNC(=N)N)NC(=O)[C@H](CC(C)C)NC(=O)[C@H](CCCNC(=N)N)NC(=O)[C@@H](N)C(C)C)C(=O)N[C@@H](CCCNC(=N)N)C(=O)N[C@H](C(=O)N[C@@H](Cc1c[nH]c2ccccc12)C(=O)N[C@H](C(=O)N[C@H](C(=O)N[C@@H](CCCNC(=N)N)C(=O)N[C@@H](C)C(N)=O)[C@@H](C)CC)C(C)C)C(C)C [HH6, VRLRIRVWVIRA] (H-VRLRIRVWVIRA-NH2) | 6 µg/mL (≈ 3.91 µM) | 25 µg/mL (≈ 16.3 µM) | 12 µg/mL (≈ 7.81 µM) | 3 µg/mL (≈ 1.95 µM) | 6 µg/mL (≈ 3.91 µM) | 1.6 µg/mL (≈ 1.04 µM) | 12 µg/mL (≈ 7.81 µM) |  |  |  |  |  | 
CC[C@H](C)[C@H](NC(=O)[C@H](CCCNC(=N)N)NC(=O)[C@H](Cc1c[nH]c2ccccc12)NC(=O)[C@H](CCCNC(=N)N)NC(=O)[C@@H](N)CCCCN)C(=O)N[C@@H](CCCNC(=N)N)C(=O)N[C@H](C(=O)N[C@@H](CCCNC(=N)N)C(=O)N[C@H](C(=O)N[C@H](C(=O)N[C@@H](CCCNC(=N)N)C(=O)N[C@@H](CCCCN)C(N)=O)[C@@H](C)CC)C(C)C)C(C)C [HH16, KRWRIRVRVIRK] (H-KRWRIRVRVIRK-NH2) | 12 µg/mL (≈ 7.21 µM) | 6 µg/mL (≈ 3.6 µM) | 3 µg/mL (≈ 1.8 µM) | 1.6 µg/mL (≈ 0.961 µM) | 3 µg/mL (≈ 1.8 µM) | 0.8 µg/mL (≈ 0.48 µM) | 3 µg/mL (≈ 1.8 µM) |  |  |  |  |  | 
CC[C@H](C)[C@H](N)C(=O)N[C@@H](CC(C)C)C(=O)N[C@@H](CCCCN)C(=O)N[C@@H](Cc1c[nH]c2ccccc12)C(=O)N[C@@H](CCCCN)C(=O)N[C@@H](Cc1c[nH]c2ccccc12)C(=O)N1CCC[C@H]1C(=O)N[C@@H](Cc1c[nH]c2ccccc12)C(=O)N[C@@H](Cc1c[nH]c2ccccc12)C(=O)N[C@@H](CCCCN)C(=O)N[C@@H](Cc1c[nH]c2ccccc12)C(=O)N[C@@H](CCCNC(=N)N)C(=O)N[C@@H](CCCNC(=N)N)C(N)=O [HH970, ILKWKWPWWKWRR] (H-ILKWKWPWWKWRR-NH2; N-terminus assumed) | 31 µg/mL (≈ 15.7 µM) | 16 µg/mL (≈ 8.13 µM) | 16 µg/mL (≈ 8.13 µM) |  | 8 µg/mL (≈ 4.06 µM) | 2 µg/mL (≈ 1.02 µM) | 16 µg/mL (≈ 8.13 µM) | 8 µg/mL (≈ 4.06 µM) |  |  |  |  | 
CC[C@H](C)[C@H](NC(=O)[C@@H](N)CCCCN)C(=O)N[C@@H](Cc1c[nH]c2ccccc12)C(=O)N[C@H](C(=O)N[C@@H](CCCNC(=N)N)C(=O)N[C@@H](Cc1c[nH]c2ccccc12)C(=O)N[C@@H](CCCCN)C(N)=O)C(C)C [HH17, KIWVRWK-NH2] (H-KIWVRWK-NH2) | >50 µg/mL | >50 µg/mL | >50 µg/mL | 50 µg/mL (≈ 49.3 µM) | >50 µg/mL | >50 µg/mL | >50 µg/mL |  |  |  |  |  | 
CC[C@H](C)[C@H](N)C(=O)N[C@@H](CC(C)C)C(=O)N1CCC[C@H]1C(=O)N[C@@H](Cc1c[nH]c2ccccc12)C(=O)N[C@@H](CCCCN)C(=O)N[C@@H](Cc1c[nH]c2ccccc12)C(=O)N1CCC[C@H]1C(=O)N[C@@H](Cc1c[nH]c2ccccc12)C(=O)N[C@@H](Cc1c[nH]c2ccccc12)C(=O)N1CCC[C@H]1C(=O)N[C@@H](Cc1c[nH]c2ccccc12)C(=O)N[C@@H](CCCNC(=N)N)C(=O)N[C@@H](CCCNC(=N)N)C(N)=O [Indolicidin, ILPWKWPWWPWRR-NH2, reference compound] |  |  | 31 µg/mL (≈ 16.3 µM) |  |  |  |  | 8 µg/mL (≈ 4.2 µM) | 31 µg/mL (≈ 16.3 µM) | 16 µg/mL (≈ 8.39 µM) | 16 µg/mL (≈ 8.39 µM) | 8 µg/mL (≈ 4.2 µM) | 62 µg/mL (≈ 32.5 µM)
CC[C@H](C)[C@H](NC(=O)[C@H](CCCNC(=N)N)NC(=O)[C@H](CC(C)C)NC(=O)[C@H](CCC(N)=O)NC(=O)[C@@H](N)C(C)C)C(=O)N[C@@H](CCCNC(=N)N)C(=O)N[C@H](C(=O)N[C@@H](C)C(=O)N[C@H](C(=O)N[C@H](C(=O)N[C@@H](CCCNC(=N)N)C(=O)N[C@@H](C)C(N)=O)[C@@H](C)CC)C(C)C)C(C)C [HH2, VQLRIRVAVIRA] (H-VQLRIRVAVIRA-NH2) | 50 µg/mL (≈ 35.9 µM) | 25 µg/mL (≈ 17.9 µM) | 12 µg/mL (≈ 8.62 µM) | 6 µg/mL (≈ 4.31 µM) | 50 µg/mL (≈ 35.9 µM) | 12 µg/mL (≈ 8.62 µM) | >50 µg/mL |  |  |  |  |  | 
CC[C@H](C)[C@H](NC(=O)[C@H](CCCNC(=N)N)NC(=O)[C@H](CC(C)C)NC(=O)[C@H](CCCNC(=N)N)NC(=O)[C@@H](N)C(C)C)C(=O)N[C@@H](CCCNC(=N)N)C(=O)N[C@H](C(=O)N[C@@H](C)C(=O)N[C@H](C(=O)N[C@@H](CCCNC(=N)N)C(=O)N[C@@H](CCCNC(=N)N)C(=O)N[C@@H](C)C(N)=O)C(C)C)C(C)C [HH7, VRLRIRVAVRRA] (H-VRLRIRVAVRRA-NH2) | 25 µg/mL (≈ 17.1 µM) | 6 µg/mL (≈ 4.1 µM) | 6 µg/mL (≈ 4.1 µM) | 6 µg/mL (≈ 4.1 µM) | 12 µg/mL (≈ 8.2 µM) | 1.6 µg/mL (≈ 1.09 µM) | 12 µg/mL (≈ 8.2 µM) |  |  |  |  |  | 
CC[C@H](C)[C@H](NC(=O)[C@H](CCCNC(=N)N)NC(=O)[C@H](Cc1c[nH]c2ccccc12)NC(=O)[C@H](CCC(N)=O)NC(=O)[C@@H](N)Cc1c[nH]cn1)C(=O)N[C@@H](CCCNC(=N)N)C(=O)N[C@H](C(=O)N[C@@H](C)C(=O)N[C@H](C(=O)N[C@@H](CCCNC(=N)N)C(=O)N[C@@H](CCCNC(=N)N)C(=O)N[C@@H](Cc1c[nH]cn1)C(N)=O)C(C)C)C(C)C [HH14, HQWRIRVAVRRH] (H-HQWRIRVAVRRH-NH2) | >50 µg/mL | 25 µg/mL (≈ 15.5 µM) | 25 µg/mL (≈ 15.5 µM) | 6 µg/mL (≈ 3.72 µM) | 25 µg/mL (≈ 15.5 µM) | 12 µg/mL (≈ 7.44 µM) | 50 µg/mL (≈ 31 µM) |  |  |  |  |  | 
CC[C@H](C)[C@H](NC(=O)[C@H](CCCNC(=N)N)NC(=O)[C@H](Cc1ccccc1)NC(=O)[C@H](CCCNC(=N)N)NC(=O)[C@@H](N)C(C)C)C(=O)N[C@@H](CCCNC(=N)N)C(=O)N[C@H](C(=O)N[C@@H](C)C(=O)N[C@H](C(=O)N[C@H](C(=O)N[C@@H](CCCNC(=N)N)C(=O)N[C@@H](C)C(N)=O)[C@@H](C)CC)C(C)C)C(C)C [HH3, VRFRIRVAVIRA] (H-VRFRIRVAVIRA-NH2) | 25 µg/mL (≈ 17.2 µM) | 6 µg/mL (≈ 4.12 µM) | 6 µg/mL (≈ 4.12 µM) | 1.6 µg/mL (≈ 1.1 µM) | 12 µg/mL (≈ 8.25 µM) | 1.6 µg/mL (≈ 1.1 µM) | 6 µg/mL (≈ 4.12 µM) |  |  |  |  |  | 
CC[C@H](C)[C@H](NC(=O)[C@H](Cc1c[nH]c2ccccc12)NC(=O)[C@H](CC(C)C)NC(=O)[C@H](CCCNC(=N)N)NC(=O)[C@@H](N)C(C)C)C(=O)N[C@@H](CCCNC(=N)N)C(=O)N[C@H](C(=O)N[C@@H](C)C(=O)N[C@H](C(=O)N[C@H](C(=O)N[C@@H](CCCNC(=N)N)C(=O)N[C@@H](C)C(N)=O)[C@@H](C)CC)C(C)C)C(C)C [HH5, VRLWIRVAVIRA] (H-VRLWIRVAVIRA-NH2) | 25 µg/mL (≈ 17.2 µM) | 50 µg/mL (≈ 34.5 µM) | >50 µg/mL | 6 µg/mL (≈ 4.14 µM) | 50 µg/mL (≈ 34.5 µM) | 3 µg/mL (≈ 2.07 µM) | >50 µg/mL |  |  |  |  |  | 
